The subject of assay [1] is HT29 cell line (NCI standard human colon carcinoma cell line). Briefly: BrdU cell growth inhibition, HT-29. The format is cell-based. The conditions noted are these: HT29 cells. As for the experimental part: (§1) The GI50s for several of the compounds of the invention were assayed as described herein.
The HT29 cell line is a NCI standard human colon carcinoma cell line. […] HT29 cells were routinely cultured in McCoy's 5A medium supplemented with Fetal Bovine Serum (1.5% v/v) and L-glutamine (2 mM).
(§2) In the BrdU Assay for cell growth inhibition, quantitation of cell proliferation was based on the measurement of BrdU incorporation during DNA synthesis. The Cell Proliferation ELISA BrdU assay kit (colorimetric) was obtained from Roche Applied Science and performed as per vendor instructions.
(§3) The growth inhibition (GI) is determined from the formula GI=(T0-Tn×100/T0−CONn) where T0 is the BrdU growth of untreated cells at time “0”, Tn is the BrdU growth of treated cells at day “n” and CONn is the control BrdU growth of control cells at day “n”. The GI50 was extrapolated and the data plotted using XL-Fit 4.0 software.
(§4) For 96 well culture plate experiments, c-Src 3T3 medium was supplemented with 10 mM HEPES buffer. HT-29 cells were seeded in standard tissue culture 96-well plates and c-Src 3T3 cells were seeded in 96-well plates coated with Poly-D-lysine (BIOCOAT™). To increase CO2 diffusion, c-Src 3T3 96-well plates were incubated with their lids raised by 2 mm using sterile rubber caps.
(§5) Seeded 96 well plates were allowed to attach overnight for 18-24 hours, either at 37° C. and 5% CO2 for HT-29 or at 37° C. and 10% CO2 for c-Src 3T3. Approx 18-24 hours after seeding, the initial growth of cells (To) was determined for untreated cells using the BrdU assay. Samples were reconstituted in DMSO at 20 mM and intermediate dilutions made using DMEM containing 10% FBS. The final assay concentrations were 1.5% for FBS and 0.05% for DMSO. Samples were added as 10 μL aliquots in triplicate and plates were incubated as above for 72 hours. Negative (vehicle) and positive controls (e.g., AZ (KX-328)) were included. Plates were assayed for BrdU and the data analyzed as above for GI50. […]

The test system of assay [2] is c-Src 3T3 cells (NIH 3T3 transfected with human c-Src 527F). Briefly: BrdU cell growth inhibition, c-Src 3T3. The class given is cell-based, mouse. As for the experimental part:
as §1
The c-Src 3T3 is a mouse fibroblast NIH 3T3 normal cell line that has been transfected with a point-mutant of human c-Src wherein tyrosine 527 has been converted to a phenylalanine. This mutation results in “constitutively active” c-Src because phosphorylation on tyrosine 527 results in auto-inhibition of Src by having it fold back on its own SH2 domain. With a Phe there, this phosphorylation can't occur and therefore auto-inhibition can't occur. Thus, the always fully active mutant Src then converts the normal mouse fibroblasts into rapidly growing tumor cells. Since the hyperactive Src is the main factor driving growth in these cells (particularly when cultured under low growth serum conditions), compounds active in blocking this growth are thought to work by blocking Src signaling (e.g. as a direct Src kinase inhibitor or as an inhibitor acting somewhere else in the Src signaling cascade). The cells were routinely cultured in DMEM supplemented with Fetal Bovine Serum (2.0% v/V), L-glutamine (2 mM) and Sodium Pyruvate (1 mM).
as §2, §3, §4
as §5, with “Negative (vehicle) and positive controls (e.g., AZ (KX-328)) were included.” left out

Assay [3] relates to Chinchillas, noise-induced hearing loss. Briefly: Protection against noise-induced hearing loss. The class given is in vivo. The conditions noted are these: chinchilla; round window application; 4 kHz band noise 105 dB SPL four hours; day 1, 7, 21; in most cases. As for the experimental part:
Chinchillas (N=6) were used in studies of noise-induced hearing loss. The animals' hearing sensitivity was measured using standard electrophysical techniques before the experimental manipulation. […] Animals were anesthetized, the auditory bullae were opened, and the left and right cochleas were visualized. The round window leading to the scala tympani of the cochlea was used as the access point for drug application. Animals were treated with KX1-004, KX1-141, KX1-329 or KX2-328 (a non-ATP competitive inhibitor from Astrazeneca), emulsified in DMSO, in […] of saline solution, which was placed on the round window of one ear. A control solution of 3 mM DMSO in […] of saline solution was placed on the round window of the other ear. The solution was allowed to set on the round window for 30 minutes, then the auditory bullae were closed. […] Following the noise exposure, the animals' hearing was tested at day 1, day 7, and day 21 to determine evoked potential threshold shifts. Permanent threshold shift was assessed at day 21.
FIGS. 10-12 show the average threshold shifts for animals treated with KX1-004, KX1-141, KX1-329 or KX2-328.

Assay [4] relates to osteoclast precursors derived from spleen cells. Briefly: Effect on osteoclast formation. The format is cell-based. The conditions noted are these: 5 days, RANKL and M-CSF. As for the experimental part: To determine the effect of the compounds on osteoclast formation, the compounds were added to osteoclast precursors derived from spleen cells. For the generation of spleen-derived osteoclasts, spleen cells comprising osteoclast precursors were treated with Rapamycin, KX1-141, KX2-328 (Astrazeneca compound), or KX1-329 for 5 days in the presence of receptor activator of nuclear factor-KB ligand (RANKL) and macrophage colony-stimulating factor (M-CSF). In in vitro murine or human osteoclast models, soluble RANKL enables osteoclast precursors to differentiate in the presence of M-CSF (Quinn, et al.; 1998, Endocrinology, 139, 4424-4427; Jimi, et al.; 1999, J. Immunol., 163, 434-442). The untreated control cells were incubated in the presence of RANKL and M-CSF alone. Rapamycin was used as a positive control for the inhibition of osteoclast formation.
For generating spleen-derived osteoclasts, spleen cells were treated as described above. […] Cells were then stained with the osteoclast marker, tartrate-resistant acid phosphatase (TRAP) to visualize differentiated cells. The numbers of TRAP-positive osteoclasts were counted.

The subject of a further assay is osteoclasts. In words: Effect on osteoclast survival. The class given is cell-based. The conditions noted are these: 48 hours, RANKL and M-CSF. Here is the method:
To determine the effect of the compounds on osteoclast survival, osteoclasts were treated with Rapamycin, KX1-141, KX2-328, or KX1-329 for 48 hours in the presence of RANKL and M-CSF. The untreated, control cells were incubated in the presence of RANKL and M-CSF alone. Rapamycin was used as a positive control for the inhibition of osteoclast survival.
As described above, osteoclasts were treated with Rapamycin, KX1-141, KX2-328, or KX1-329 for 48 hours in the presence of RANKL and M-CSF. […] Cells were then stained with TRAP and the number of TRAP-positive osteoclasts were counted.

Assay [5] deals with osteoclasts on bone slices. In words: Effect on bone resorption in vitro (bone slices). The class given is cell-based. Here is the method: To determine the effects of the compounds on osteoclast formation on bone slices, the bone slices were treated with Rapamycin, KX1-141, KX2-328, or KX1-329. […] The number of osteoclasts on the bone slices were counted.
During the resorption of bone, osteoclasts form resorption pits. To determine the effects of the compounds on resorption pit formation on bone slices, the bone slices were treated with Rapamycin, KX1-141, KX2-328, or KX1-329, as described above. […] The number of resorption pits on the bone slices was determined.
Bone slices were treated as indicated above. […] The bone slices were then stained with TRAP.
Bone slices were treated as indicated above. […] The bone slices were stained with Toluidine Blue to reveal resorption pits, which are indicators of osteoclast-mediated resorption of bone.

Assay [6] relates to Guinea pigs, cisplatin-induced hearing loss. In words: Protection against cisplatin-induced hearing loss. The format is in vivo. The conditions noted are these: guinea pig; subcutaneous, prior to cisplatin; FIG. 15. As for the experimental part:
The effects of high level noise and ototoxic drugs, such as cisplatin or the class of aminoglycosides, share several common features in the inner ear. First, the noise and/or drugs alter the free radi cal/anti oxidant levels in the cochlea (inner ear). […] Guinea pigs (N=7) were used in studies of cisplatin-induced hearing loss. The animals' hearing sensitivity was measured using standard electrophysical techniques before the experimental manipulation. […] Animals were anesthetized and treated with cisplatin. Subsequently, the animals' hearing was tested to determine evoked potential threshold shifts.
Animals were treated subcutaneously with KX1-004 prior to the cisplatin-induced hearing loss.

A value given as a limit tells only on which side of the number the result lay.

Turning to `O=C(Cc1ccc(-c2ccccc2)c[n+]1[O-])NCc1cccc(F)c1` [KX1-329 N-oxide], the “GI50 (HT29)” value in assay [1] was “inactive (HT-29)”. Also, in assay [2], the “GI50 (c-Src 3T3)” value is “inactive (c-Src 3T3);”.

Regarding `O=C(Cc1ccc(-c2ccccc2)cn1)NCc1cccc(F)c1` [KX1-329], the “average dB threshold shifts of treated ears vs control” value in assay [3] is “lower”. Moreover, the “number of TRAP-positive osteoclasts vs untreated control (formation)” value in assay [4] (FIG. 17) was “reduced the number of TRAP-positive osteoclasts”. For the same compound, in assay [4] (stained, FIG. 16), the “formation of osteoclasts vs untreated control” value is “inhibited the formation of osteoclasts”. Besides, the “survival of osteoclasts vs untreated control” value in the assay on osteoclasts (FIG. 18) is on record as “inhibited the survival of osteoclasts”. Besides, in the assay on osteoclasts (FIG. 19), the “number of TRAP-positive osteoclasts vs untreated control (survival)” value is “reduced the number of TRAP-positive osteoclasts”. The “number of osteoclasts on the bone slices vs untreated control” value in assay [5] (FIG. 20A) is reported as “reduced the number of osteoclasts on the bone slices”. The “number of resorption pits on the bone slices vs untreated control” value in assay [5] (FIG. 20B) is recorded as “reduced the number of resorption pits”; in assay [5] (Toluidine Blue stain, FIG. 21B) it was “reduced the number of resorption pits”. In assay [5] (TRAP stain, FIG. 21A), the “number of TRAP-positive osteoclasts on the bone slices vs untreated control” value is reported as “reduced the number of TRAP-positive osteoclasts”.

What is called GI50 is the concentration giving 50% growth inhibition. Read a high GI50 as lower sensitivity of the cells. In assay [2] (NIH3T3), `CN1CCN(Cc2ccc(-c3ccc(CC(=O)NCc4cccc(F)c4)nc3)cc2)CC1` [KX2-376] returned a GI50 of more than 16 nM.

Turning to `CCOc1ccc(-c2ccc(CC(=O)NCc3cccc(F)c3)nc2)c(OCCN2CCN(C)CC2)c1` [KX2-384], the “GI50 (HT29)” value in assay [1] was “inactive (HT-29)”.

As for `CC(C)COc1cc(F)cc(CNC(=O)Cc2ccc(-c3ccc(OCCN4CCCCC4)cc3)cn2)c1` [KX2-386], in assay [1], the “GI50 (HT29)” value is “inactive (HT-29)”.

In the case of `CC(C)COc1cc(F)cc(CNC(=O)Cc2ccc(-c3ccc(OCCN4CCOCC4)cc3)cn2)c1` [KX2-387], the “GI50 (c-Src 3T3)” value in assay [2] was “inactive (c-Src 3T3);”.

Regarding `CCOc1ccc(-c2ccc(CC(=O)NCc3cccc(F)c3)nc2)c(OCCN2CCCCC2)c1` [KX2-389], the “GI50 (c-Src 3T3)” value in assay [2] is “Inactive (c-Src 3T3);”.

With KX1-004, the “average dB threshold shifts of treated ears vs control” value in assay [3] is “lower”. Further, in assay [6], the “protection against cisplatin-induced hearing loss (median CAP thresholds)” value was “protected against cisplatin-induced hearing loss”.

Values taken from patent US20210252008A1, “BIARYL COMPOSITIONS AND METHODS FOR MODULATING A KINASE CASCADE” (Athenex, Inc., priority 2004, published 2021).
